The target in experiment [1] is Prostaglandin G/H synthase 1 (Homo sapiens, UniProt P23219). Nature of the experiment: Inhibition of COX-1 (unknown origin) by colorimetric analysis.
Experiment [2] concerns the target T1, Prostaglandin G/H synthase 2 (Homo sapiens, UniProt P35354).
T1 sequence (P35354 whole entry): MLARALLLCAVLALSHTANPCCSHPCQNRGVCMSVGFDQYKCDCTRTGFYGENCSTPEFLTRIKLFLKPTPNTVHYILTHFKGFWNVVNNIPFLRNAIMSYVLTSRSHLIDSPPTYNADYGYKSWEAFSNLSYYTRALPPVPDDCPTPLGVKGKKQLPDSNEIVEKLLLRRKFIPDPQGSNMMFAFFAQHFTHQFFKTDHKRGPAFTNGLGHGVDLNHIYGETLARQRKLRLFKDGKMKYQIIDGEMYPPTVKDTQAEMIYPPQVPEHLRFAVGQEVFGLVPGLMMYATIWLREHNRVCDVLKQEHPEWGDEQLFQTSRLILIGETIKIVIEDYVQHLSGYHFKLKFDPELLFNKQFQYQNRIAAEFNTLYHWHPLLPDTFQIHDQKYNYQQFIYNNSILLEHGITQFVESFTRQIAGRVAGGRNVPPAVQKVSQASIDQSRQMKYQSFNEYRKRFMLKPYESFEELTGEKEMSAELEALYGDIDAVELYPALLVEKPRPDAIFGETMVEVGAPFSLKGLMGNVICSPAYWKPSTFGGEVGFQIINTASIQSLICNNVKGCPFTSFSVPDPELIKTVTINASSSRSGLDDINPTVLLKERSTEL
Nature of the experiment: Inhibition of COX-2 (unknown origin) by colorimetric analysis.

In experiment [3] the test system is RAW264.7. Nature of the experiment: Antiinflammatory activity against LPS-stimulated mouse RAW264.7 cells assessed as reduction in COX-2 protein expression at 10 uM relative to control. In kind it is functional. The arrangement: scale not given: the % may be the effect or the level left.
In experiment [4] the test system is RAW264.7. Nature of the experiment: Antiinflammatory activity against LPS-stimulated mouse RAW264.7 cells assessed as reduction in iNOS protein expression at 10 uM relative to control. Also noted: scale not given: the % may be the effect or the level left. In kind it is functional.
Experiment [5] deals with Mus musculus. Nature of the experiment: Antiinflammatory activity in mouse assessed as inhibition of xylene-induced ear edema at 8 mg/kg, ip pre-treated for 30 mins followed by xylene administration and measured after 1 hrs relative to control. It counts as functional. The settings on record: time 1.5 hrs.
Experiment [6] addresses T2, Polyunsaturated fatty acid 5-lipoxygenase (Homo sapiens) (UniProt P09917).
T2 sequence (whole entry): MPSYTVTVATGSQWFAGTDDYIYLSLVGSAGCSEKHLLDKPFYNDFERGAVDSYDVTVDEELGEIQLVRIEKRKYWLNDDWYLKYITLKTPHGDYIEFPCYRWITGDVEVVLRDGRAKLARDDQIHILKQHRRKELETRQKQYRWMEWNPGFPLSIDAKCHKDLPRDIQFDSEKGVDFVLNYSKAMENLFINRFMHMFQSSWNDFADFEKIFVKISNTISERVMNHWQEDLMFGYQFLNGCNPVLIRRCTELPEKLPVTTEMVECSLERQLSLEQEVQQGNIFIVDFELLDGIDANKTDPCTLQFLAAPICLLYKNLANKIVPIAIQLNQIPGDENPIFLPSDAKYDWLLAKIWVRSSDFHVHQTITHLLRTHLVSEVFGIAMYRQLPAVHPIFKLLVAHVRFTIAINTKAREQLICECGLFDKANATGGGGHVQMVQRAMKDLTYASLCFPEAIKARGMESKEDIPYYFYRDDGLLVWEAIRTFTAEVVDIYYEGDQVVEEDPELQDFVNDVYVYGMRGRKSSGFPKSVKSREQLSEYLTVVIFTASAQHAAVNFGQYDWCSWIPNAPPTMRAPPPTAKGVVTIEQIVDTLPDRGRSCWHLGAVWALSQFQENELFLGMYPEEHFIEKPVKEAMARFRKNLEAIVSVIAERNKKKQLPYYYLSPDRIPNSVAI
Nature of the experiment: Inhibition of 5-LOX (unknown origin) at 100 uM measured after 5 mins by colorimetric method relative to control.

Experiment [7] deals with RAW264.7. Nature of the experiment: Inhibition of NO production in LPS-stimulated mouse RAW264.7 cells preincubated with compound for 30 mins followed by LPS stimulation and measured after 24 hrs by Griess reagent-based assay. It counts as functional, cell-based. For orientation: The Griess reaction detects nitrite, a stable product of nitric oxide.
The subject of experiment [8] is RAW264.7. Nature of the experiment: Inhibition of NO production in LPS-stimulated mouse RAW264.7 cells preincubated with compound for 3 hrs followed by LPS stimulation and measured after 20 hrs by Griess reagent-based assay. It counts as functional, cell-based.
Experiment [9] has as its system Mus musculus. Nature of the experiment: Antiinflammatory activity in Swiss Webster albino mouse assessed as inhibition of carrageenan-induced paw edema at 75 mg/kg, ip preadministered for 1 hrs followed by carrageenan induction and measured after 3 hrs by plethysmometer relative to control. The settings on record: time 4 hrs. It counts as functional. For orientation: In the carrageenan paw model, swelling and tenderness develop within hours.

The subject of experiment [10] is Mus musculus. Nature of the experiment: Analgesic activity in Swiss Webster albino mouse assessed as inhibition of acetic acid-induced writhing at 125 mg/kg, po pre-treated for 30 mins followed by acetic acid induction and measured for 15 mins relative to control. In kind it is functional. The following applies: 0.75 h, time 45 min. For orientation: In writhing tests, fewer writhes than in controls are read as antinociception.

Experiment [11] has as its system RAW264.7. Nature of the experiment: Inhibition of NO production in LPS-stimulated mouse RAW264.7 cells preincubated with compound for 1 hrs followed by LPS stimulation and measured after 24 hrs by Griess reagent-based assay. It counts as functional, cell-based.
The subject of experiment [12] is Mus musculus. Nature of the experiment: Antiinflammatory activity in mouse assessed as inhibition of xylene-induced ear edema at 5 mg/kg, IG pre-treated for 30 mins followed by xylene administration and measured after 1 hrs relative to control. The following applies: po, time 1.5 hrs. In kind it is functional.
A short description of experiment [13]: Inhibition of LPS-induced NO production in mouse BV-2 cells […]. It counts as functional, cell-based.
Experiment [14] deals with RAW264.7. Nature of the experiment: Antiinflammatory activity in mouse RAW264.7 cells assessed as inhibition of LPS-stimulated iNOS activity preincubated with compound for 24 hrs followed by LPS stimulation for 2 hrs and measured 2 hrs after NADPH addition by fluorescence based assay. It counts as functional, cell-based.
The subject of experiment [15] is RAW264.7. Nature of the experiment: Inhibition of NO production in LPS-stimulated mouse RAW264.7 cells preincubated with compound for 24 hrs followed by LPS stimulation and measured after 2 hrs by Griess reagent-based assay. In kind it is functional, cell-based.
Experiment [16] has as its system Mus musculus. Nature of the experiment: Prevention of LPS-induced mortality in C57BL/6 mouse model at 30 mg/kg, ip measured after 5 days relative to control. It counts as functional. The settings on record: time 5 day.
A short description of experiment [17]: Inhibition of NO production in LPS-stimulated mouse BV-2 cells preincubated with compound for 1 hrs followed by LPS stimulation and measured after 24 hrs by Griess reagent-based assay. It counts as functional, cell-based.
Experiment [18] can be described thus: Inhibition of IL6 production in LPS-stimulated human PBMC cells. It counts as functional, cell-based.
Experiment [19] in a line: Inhibition of TNF-alpha production in LPS-stimulated human PBMC cells. It counts as functional, cell-based.

≈ marks a conversion by molar mass, not a printed value.

The term IC50 denotes the midpoint of a concentration-inhibition curve. The term inhibition in vivo denotes the drop in the measured response relative to a control, in per cent. The inhibition is the share of the control response that was lost under treatment.

Chain of Prostaglandin G/H synthase 1 (P23219 whole entry): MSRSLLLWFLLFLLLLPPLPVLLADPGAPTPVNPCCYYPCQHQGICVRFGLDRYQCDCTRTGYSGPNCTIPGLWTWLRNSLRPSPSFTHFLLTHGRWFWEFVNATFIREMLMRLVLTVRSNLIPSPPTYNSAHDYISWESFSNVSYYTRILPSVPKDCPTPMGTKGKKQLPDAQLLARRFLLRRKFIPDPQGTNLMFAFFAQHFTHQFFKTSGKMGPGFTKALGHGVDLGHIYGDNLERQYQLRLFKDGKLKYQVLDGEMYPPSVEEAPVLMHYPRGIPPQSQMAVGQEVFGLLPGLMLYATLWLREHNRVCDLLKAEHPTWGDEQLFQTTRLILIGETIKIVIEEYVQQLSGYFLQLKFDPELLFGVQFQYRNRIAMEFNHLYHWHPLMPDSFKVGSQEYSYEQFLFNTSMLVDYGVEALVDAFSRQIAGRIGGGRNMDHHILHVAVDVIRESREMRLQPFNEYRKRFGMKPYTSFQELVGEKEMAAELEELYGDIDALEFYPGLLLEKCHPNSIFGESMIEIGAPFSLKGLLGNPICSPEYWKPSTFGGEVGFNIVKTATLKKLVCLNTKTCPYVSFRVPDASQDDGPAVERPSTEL

Consider `CC(C)CC(=O)NC[C@H](O)CC[C@@H](CO)NC(=O)c1nc2ccccc2cc1O`, for which the IC50 was 7.6 µM in experiment [1] and 2.1 µM in [2].
For `CSc1[nH]c2cc(Br)c(Br)c(Br)c2c1SC`, the values for the Activity in experiment [3] and in experiment [4] were 1.6% and 2.8%, respectively.
For the compound `C/C=C1/CN2CC[C@@H]1[C@@](CO)(C(=O)OC)c1[nH]c3ccccc3c1C2`, the inhibition in vivo at 8 mg/kg in [5] came out at 40.3%. In addition, the inhibition in experiment [6] was 60.8%.
For `COc1c(O)ccc2c1cnc1c3cc4c(cc3ccc21)OCO4` [DECARINE], the IC50 in [7] turned out to be 48.4 µM.
Take `C=C1C=C2C=C[C@H](OC)C[C@@]23c2cc4c(cc2[C@@H](O)CN13)OCO4`: the IC50 in experiment [8] turned out to be 3.4 µg/mL (≈ 10.4 µM).
In the case of `O=C1Oc2c(c3c(O)cc(O)cc3n2-c2ccc(O)cc2)C(=O)Oc2c1c1c(O)cc(O)cc1n2-c1ccc(O)cc1`, in experiment [9], the inhibition in vivo at 75 mg/kg was found to be 57.1%. Also, in experiment [10], the inhibition in vivo at 125 mg/kg was 49.4%.
Turning to `O=C1CC[C@H]2c3[nH]c4ccc(O)cc4c3CCN12`, the IC50 in experiment [11] was 25.2 µM.
On to `COC(=O)C1=C2Nc3c(O)cccc3[C@@]23CCN2C[C@@H]([C@H](C)O)[C@@H]1C[C@H]23` [SCHOLARICINE], for which the inhibition in vivo at 5 mg/kg in experiment [12] is 42%.
For the compound `CC(C)=CCOc1ccc(CCNC(=O)c2ccccc2)cc1`, inhibition in experiment [13] was half-maximal at 4.9 µM (IC50).
Consider `C=CC(C)(C)c1[nH]c2cc3c(cc2c1/C=C1\NC(=O)[C@@H]2CCCN2C1=O)C=CC(C)(C)O3`, for which the IC50 in experiment [14] was found to be 5.4 µM; in experiment [15] it was 11.2 µM.
`COc1ccc2c(c1)[nH]c1c(/C=C/C(=O)O)nccc12` registered an Activity in experiment [16] of 12.5%.
In the case of `COc1cc(/C=C/C(=O)CC(=O)/C=C/c2ccc(O)c(OC)c2)ccc1O` [CURCUMIN], the IC50 in experiment [17] and in experiment [13] was 0.5 µM in each case.
On to `COc1cc(C)cc2c1[nH]c1ccccc12` [MURRAYAFOLINE A], for which the values for the concentration for half-maximal inhibition (IC50) in experiment [18] and in experiment [19] were 8.4 µM and 7 µM, respectively.

The values are drawn from ChEMBL document CHEMBL5226289, “Discovery of natural anti-inflammatory alkaloids: Potential leads for the drug discovery for the treatment of inflammation” (Eur J Med Chem, 2021).
